{"source": "patent US4477451A", "about": "“5,6-Dihydro-11-methylenemorphanthridin-6-ones, their preparation and drugs containing these compounds” (BASF Aktiengesellschaft, priority 1982, dated 1984)", "tested_on": "gastric ulcers (ulcerous mucosal lesions)", "assay": "antiulcerogenic action on the rat (reserpine/indometacin/cold-induced gastric ulcers, oral test substance)", "type": "in vivo, female Sprague-Dawley rats", "details": "for ED50: Rattus norvegicus, oral, dose which reduces the ulcerous area by 50%, reserpine 1 mg/kg i.p., indometacin 21.5 mg/kg i.p., 6 hours at 8° C., read-out: Antiulcerogenic action on the rat, ED 50%; for Antiulcerogenic action on the rat, Relative activity: relative to pirenzepine = 1.0", "description": "To investigate the antiulcerogenic action, 1 mg/kg of reserpine is administered intraperitoneally to groups of 10 female Sprague-Dawley rats each weighing 160-180 g, and the rats then remain without food for 18 hours (water ad libitum). This period is followed by intraperitoneal administration of 21.5 mg/kg of indometacin and oral administration of the test substance to the animals, which are then kept for 6 hours at 8° C., after which they are sacrificed. The stomachs are removed, and the area of ulcerous mucosal lesions is determined. The dose which reduces the ulcerous area by 50%, ie. the ED 50%, is determined from the linear regression between the logarithms of the doses administered and the relative reduction in the area of ulcerations, based on the control animals.\nPirenzepine (5,11-dihydro-11-[(4-methylpiperazin-1-yl)-acetyl]-6H-pyrido[2,3-b][1,4]benzodiazepin-6-one; German Pat. No. 1,795,183) is used as the reference substance."}
{"smiles": "O=C(C=C1c2ccccc2NC(=O)c2ccccc21)OCCN1CCOCC1", "note": "(mixture of isomers) [Example 1, cis,trans-11-(2-Morpholin-1-yl)-ethoxycarbonylmethylene-5,6-dihydromorphanthridin-6-one]", "values": [{"measurement": "ED50", "value": 1.9, "unit": "mg/kg"}, {"measurement": "Antiulcerogenic action on the rat, Relative activity", "value": 3.4}]}
{"smiles": "CN(C)CCOC(=O)C=C1c2ccccc2NC(=O)c2ccccc21", "note": "(mixture of isomers) [Example 2, cis,trans-11-(2-Dimethylamino)-ethoxycarbonylmethylene-5,6-dihydromorphanthridin-6-one]", "values": [{"measurement": "ED50", "value": 0.64, "unit": "mg/kg"}, {"measurement": "Antiulcerogenic action on the rat, Relative activity", "value": 10.2}]}
{"smiles": "O=C(C=C1c2ccccc2NC(=O)c2ccccc21)OCCCN1CCOCC1", "note": "(mixture of isomers) [Example 14, cis,trans-11-(3-Morpholin-1-yl)-propoxycarbonylmethylene-5,6-dihydromorphanthridin-6-one]", "values": [{"measurement": "ED50", "value": 0.83, "unit": "mg/kg"}, {"measurement": "Antiulcerogenic action on the rat, Relative activity", "value": 7.8}]}
{"smiles": "O=C(/C=C1/c2ccccc2NC(=O)c2ccccc21)OCCN1CCOCC1", "note": "[Example 1, cis, cis-11-(2-morpholin-1-yl)-ethoxycarbonylmethylene-5,6-dihydromorphanthridin-6-one]", "values": [{"measurement": "ED50", "value": 1.5, "unit": "mg/kg"}, {"measurement": "Antiulcerogenic action on the rat, Relative activity", "value": 4.3}]}
{"smiles": "O=C(/C=C1\\c2ccccc2NC(=O)c2ccccc21)OCCN1CCOCC1", "note": "[Example 1, trans, trans-11-(2-morpholin-1-yl)-ethoxycarbonylmethylene-5,6-dihydromorphanthridin-6-one]", "values": [{"measurement": "ED50", "value": 5.3, "unit": "mg/kg"}, {"measurement": "Antiulcerogenic action on the rat, Relative activity", "value": 1.2}]}
{"smiles": "CN1CCN(CC(=O)N2c3ccccc3C(=O)Nc3cccnc32)CC1", "note": "[pirenzepine, 5,11-dihydro-11-[(4-methylpiperazin-1-yl)-acetyl]-6H-pyrido[2,3-b][1,4]benzodiazepin-6-one, reference compound]", "values": [{"measurement": "ED50", "value": 6.5, "unit": "mg/kg"}]}
